The results in this text go back to EP0792271B1, “FURAN DERIVATIVES FOR INHIBITING PNEUMOCYSTIS CARINII PNEUMONIA, GIARDIA LAMBLIA AND CRYPTOSPORIDIUM PARVUM” (priority 1994, dated 1996).

The target in series [1] is topoisomerase II isolated from Giardia lamblia. Kind of series: Topoisomerase II inhibition (Giardia lamblia enzyme). The following applies: 50% inhibition of topoisomerase II isolated from Giardia lamblia; read-out: IC50 Topoisomerase Activity II G.l. Type of series: biochemical.
The target of series [2] is T1, topoisomerase II isolated from Drosophila melanogaster (Drosophila melanogaster, UniProt P15348).
T1 construct: topoisomerase II isolated from Drosophila melanogaster; from tissue
T1 sequence (P15348 1-1447): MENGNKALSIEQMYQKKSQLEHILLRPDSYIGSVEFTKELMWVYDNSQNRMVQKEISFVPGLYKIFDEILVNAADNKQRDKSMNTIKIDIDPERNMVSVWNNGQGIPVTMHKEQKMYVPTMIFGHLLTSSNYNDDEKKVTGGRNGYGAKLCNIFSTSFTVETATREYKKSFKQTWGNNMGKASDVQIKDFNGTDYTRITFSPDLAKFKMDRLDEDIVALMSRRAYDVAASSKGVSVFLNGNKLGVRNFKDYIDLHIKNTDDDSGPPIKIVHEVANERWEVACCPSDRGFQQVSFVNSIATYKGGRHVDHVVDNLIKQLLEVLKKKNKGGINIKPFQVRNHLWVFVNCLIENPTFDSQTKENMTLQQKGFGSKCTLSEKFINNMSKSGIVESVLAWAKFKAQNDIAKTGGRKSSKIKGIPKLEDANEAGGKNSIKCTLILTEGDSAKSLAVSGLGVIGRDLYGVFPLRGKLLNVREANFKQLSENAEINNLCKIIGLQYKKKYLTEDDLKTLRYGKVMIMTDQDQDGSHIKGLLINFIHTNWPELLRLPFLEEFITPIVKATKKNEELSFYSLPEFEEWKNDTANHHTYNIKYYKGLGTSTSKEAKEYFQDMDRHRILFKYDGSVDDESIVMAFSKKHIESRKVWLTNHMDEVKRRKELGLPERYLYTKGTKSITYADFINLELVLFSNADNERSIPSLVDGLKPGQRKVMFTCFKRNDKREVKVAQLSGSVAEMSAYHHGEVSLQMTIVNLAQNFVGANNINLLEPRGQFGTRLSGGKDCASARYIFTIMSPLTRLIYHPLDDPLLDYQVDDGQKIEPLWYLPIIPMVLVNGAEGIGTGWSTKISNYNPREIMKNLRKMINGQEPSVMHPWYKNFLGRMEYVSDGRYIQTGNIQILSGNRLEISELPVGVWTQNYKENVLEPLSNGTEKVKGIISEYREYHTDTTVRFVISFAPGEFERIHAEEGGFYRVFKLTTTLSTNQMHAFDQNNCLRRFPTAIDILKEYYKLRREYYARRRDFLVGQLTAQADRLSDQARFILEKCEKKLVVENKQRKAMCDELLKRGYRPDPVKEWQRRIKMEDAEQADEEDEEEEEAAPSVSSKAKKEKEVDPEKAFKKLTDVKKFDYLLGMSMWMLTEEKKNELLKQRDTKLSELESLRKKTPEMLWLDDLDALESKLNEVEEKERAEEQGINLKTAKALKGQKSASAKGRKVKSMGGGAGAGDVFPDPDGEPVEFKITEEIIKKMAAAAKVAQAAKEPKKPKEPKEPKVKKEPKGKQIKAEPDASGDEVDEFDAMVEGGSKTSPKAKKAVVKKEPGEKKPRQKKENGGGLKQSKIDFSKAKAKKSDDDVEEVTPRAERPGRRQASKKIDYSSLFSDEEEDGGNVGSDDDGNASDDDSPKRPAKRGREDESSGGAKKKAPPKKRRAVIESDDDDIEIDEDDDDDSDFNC
Kind of series: Topoisomerase II inhibition (Drosophila melanogaster enzyme). Type of series: biochemical.

In series [3] the test system is Giardia lamblia. Kind of series: Inhibition of growth of Giardia lamblia in in vitro culture. It counts as cell-based. The following applies: read-out: IC50 Giardia lamblia.
The test system of series [4] is Pneumocystis carinii. Kind of series: In vivo activity against Pneumocystis carinii (lung cyst counts and toxicity). The following applies: for Toxicity: toxicity scale, larger value = more severe, values greater than 2 indicate deaths of some animals.
Series [5] relates to oligomer d(GCGCAATTGCGC)2. Kind of series: DNA thermal melting (increase in Tm of oligomer). The following applies: increase in thermal melting of the oligomer d(GCGCAATTGCGC)2; MES buffer pH 6.0. It counts as binding. How it is done: (§1) Thermal melting curves for DNA and its complexes with compounds from Examples 4, 6, and 7-9 are determined as previously described in F.A. Tanious, et al., J.Biomol. Structure & Dynamics 11:1063 (1994) and W.D. Wilson, et al., Biochemistry 32:4098 (1993), by following the adsorption change at 260 nm as a function of temperature. Tm values were determined from first derivative plots. Compounds are compared by the increase in Tm (ΔTm=Tm of complex - Tm of the free nucleic acid) they produce in MES buffer (0.01M 2-(N-morpholino) ethanesulfonic acid, 0.001 M EDTA, 0.1 M NaCl adjusted to pH 6.0) at saturating amounts of compound (a ratio of 0.3 moles of compound to nucleic acid bases) unless otherwise indicated.

In series [6] the test system is poly A poly T. Kind of series: DNA thermal melting (increase in Tm of poly A poly T). Type of series: binding. Particulars: MES buffer pH 6.0, 0.1 M NaCl, ratio of 0.3 moles of compound to nucleic acid bases. How it is done:
as §1

Series [7] has as its target topoisomerase I isolated from Pneumocystis carinii. Nature of the series: Topoisomerase I inhibition (Pneumocystis carinii enzyme). Type of series: biochemical. Particulars: 50% inhibition of topoisomerase I isolated from Pneumocystis carinii.
[8] abbreviates: 50% inhibition of topoisomerase II isolated from Drosophila melanogaster, read-out: IC50 Topoisomerase Activity II D.m.
Setting [9] is: 50% inhibition of growth of Giardia lamblia in in vitro culture.
Setting [10] is: Pneumocystis carinii, iv, read-out: cyst/g lung (% of control).

Read-outs that look alike come from different tables or passages of the source.

Broadly, the IC50 is the concentration needed to halve the response being measured. Consider “2,5-bis[2-(imidazolinyl)phenyl]-3,4-bis(methoxymethyl)furan [Compound 18]”, for which the IC50 in series [1] is 0.8 to 1 µM; in series [2] (setting [8]) it was 12.5 µM; in series [3] (setting [9]), 4.42 µM.
As for `c1cc(-c2ccc(-c3ccc(C4=NCCN4)cc3)o2)ccc1C1=NCCN1` [Compound 2, 2,5-bis[4-(2-imidazolinyl)phenyl]furan], in series [4] (setting [10]), the response vs control in vivo at 23.3 µM came to 35.4%. In addition, the Toxicity result in series [4] (dosage 23.3 µM/kg/day intravenous) is “+2”. Moreover, the IC50 was 8 µM in series [2] and 0.8 µM in series [3] (Giardia duodenalis).
`c1cc(-c2ccc(-c3ccc(C4=NCCCCN4)cc3)o2)ccc1C1=NCCCCN1` [Compound 4, 2,5-bis[4-(4,5,6,7-tetrahydro-1H-1,3-diazepin-2-yl)phenyl]furan]: the response vs control in vivo at 0.18 µM in series [4] (setting [10]) amounted to 115%. Also, the response vs control in vivo at 2.3 µM in series [4] (setting [10]) stood at 2.9%. Besides, the Toxicity in series [4] (dosage 0.18 µM/kg/day intravenous) is 0; in series [4] (dosage 2.3 µM/kg/day intravenous), “+3”. Further, the IC50 is 1.5 µM in series [1], 25 to 50 µM in series [2] and 1.1 µM in series [3] (Giardia duodenalis). Besides, in series [5], the ΔTm Oligomer stood at 10.7 °C. Besides, the ΔTm DNA in series [6] is > 28 °C.
Regarding `c1cc(-c2ccc(-c3ccc(C4=NC5CCCCC5N4)cc3)o2)ccc1C1=NC2CCCCC2N1` (centres unmarked) [Compound 5, 2,5-bis[4-(3a,4,5,6,7,7a-hexahydro-1H-benzimidazol-2-yl)phenyl]furan], the response vs control in vivo at 9.2 µM in series [4] (setting [10]) came to 80.5%. The Toxicity result in series [4] (dosage 9.2 µM/kg/day intravenous) was “+1”. Moreover, the 50% inhibitory concentration (IC50) is 3 to 6 µM in series [1], 50 µM in series [2] and 1.7 µM in series [3] (Giardia duodenalis). In series [5], the ΔTm Oligomer is 5.6 °C. In addition, the ΔTm DNA in series [6] worked out at 24.5 °C.
Take `OCCN1CCN=C1c1ccc(-c2ccc(-c3ccc(C4=NCCN4CCO)cc3)o2)cc1` [Compound 6, 2,5-bis{4[2-(N-2-hydroxyethyl)imidazolinyl]-phenyl}furan]: the response vs control in vivo at 4.8 µM in series [4] (setting [10]) was determined as 107%. The Toxicity result in series [4] (dosage 4.8 µM/kg/day intravenous) is recorded as “+3”. The values for the IC50 in series [1], in series [2] and in series [3] (Giardia duodenalis) were 20 µM, 200 µM and 5.3 µM, respectively. In addition, in series [5], the ΔTm Oligomer is 1 °C. In addition, the ΔTm DNA in series [6] is 12.2 °C.
As to `CCN1CCN=C1c1ccc(-c2ccc(-c3ccc(C4=NCCN4CC)cc3)o2)cc1` [Compound 7, 2,5-bis-{4-[2-(N-ethylimidazolinyl)]phenyl}furan], the IC50 in series [1] was 25 µM. Also, the ΔTm DNA in series [6] stood at 11.8 °C.
For the compound `Cc1ccc(Oc2cc(-c3ccc(C4=NCCCN4)cc3)oc2-c2ccc(C3=NCCCN3)cc2)cc1` [Compound 10], the Toxicity result in series [4] (dosage 1.8 µM/kg/day intravenous) is “+3”. Further, the results for the concentration for half-maximal inhibition (IC50) in series [1], in series [2] and in series [3] (Giardia duodenalis) were 1 to 3 µM, 50 to 100 µM and 3.3 µM, respectively. For the same compound, the ΔTm DNA in series [6] was > 28 °C.
In the case of `NCCNC(=O)c1ccc2[nH]c(-c3ccc(-c4ccc(-c5ccc(-c6nc7cc(C(=O)NCCN)ccc7[nH]6)cc5)o4)cc3)nc2c1` [Compound 11, 2,5-bis{4-[5-(N-2-aminoethylamido)benzimidazol-2-yl]phenyl}furan], in series [4] (dosage 4.1 µM/kg/day intravenous), the Toxicity result is on record as “+4”. In addition, the IC50 in series [1] was 5 µM; in series [2], > 300 µM; in series [3] (Giardia duodenalis) it was 0.62 µM.
`CN(C)NC(=O)c1ccc(-c2ccc(-c3ccc(C(=O)NN(C)C)cc3)o2)cc1` [Compound 12, 2,5-bis(4-N,N-dimethylcarboxhydrazidephenyl) furan]: in series [4] (dosage 7.78 µM/kg/day intravenous, percentage of saline-treated controls), the “cyst/g lung (% of control)” value is on record as 20.7 % of control. In addition, the Toxicity entry in series [4] (dosage 7.78 µM/kg/day intravenous) is “+3”. Further, the IC50 was 0.6 to 1.2 µM in series [1], 30 to 60 µM in series [2] (setting [8]) and 0.35 µM in series [3] (setting [9]).
With `CN(C)CCCNC(=N)c1ccc(-c2ccc(-c3ccc(C(=N)NCCCN(C)C)cc3)o2)cc1` [Compound 14, 2,5-bis{4-[3-(dimethylaminopropyl)amidino]phenyl}furan], the Toxicity entry in series [4] (dosage 3.9 µM/kg/day intravenous) is “+3”. The results for the IC50 in series [1], in series [2] and in series [3] (Giardia duodenalis) were 0.25 µM, > 6.2 µM and 8.98 µM, respectively. The ΔTm DNA in series [6] is > 28 °C.
Regarding `N=C(NC1CC1)c1ccc(-c2ccc(-c3ccc(C(=N)NC4CC4)cc3)o2)cc1` [Compound 15, 2,5-bis-[4-N-(cyclopropylamidino)phenyl]furan], the IC50 in series [1] stood at 1.25 µM; in series [3] (Giardia duodenalis), 0.63 µM. Further, the ΔTm DNA in series [6] was > 28 °C.
Take `N=C(NCCO)c1ccc(-c2ccc(-c3ccc(C(=N)NCCO)cc3)o2)cc1` [Compound 16, 2,5-bis-{4-[(N-2-hydroxyethyl)amidino]phenyl}furan]: in series [4] (dosage 10.4 µM/kg/day intravenous), the Toxicity stood at 0. Besides, the figures for the IC50 in series [1], in series [2] and in series [3] (Giardia duodenalis) were 1.2 to 2.5 µM, 25 to 50 µM and 0.78 µM, respectively. In addition, the ΔTm DNA in series [6] amounted to 21.1 °C.
In the case of `CN(C)CCNC(=N)c1ccc(-c2ccc(-c3ccc(C(=N)NCCN(C)C)cc3)o2)cc1` [Compound 17, 2,5-bis[4-N-(dimethylaminoethyl)amidino]phenyl furan], the results for the IC50 in series [1], in series [2] and in series [3] (Giardia duodenalis) were 0.8 µM, 12.5 µM and 10.8 µM, respectively.
With `N=C(NCCCN)c1ccc(-c2ccc(-c3ccc(C(=N)NCCCN)cc3)o2)cc1` [Compound 19, 2,5-bis-{4-[N-(3-aminopropyl)amidino]phenyl}furan], the IC50 in series [1] turned out to be 0.625 µM; in series [2], 25 µM; in series [3] (Giardia duodenalis) it was 0.059 µM.
Take `Cc1cc(-c2ccc(C(=N)NC(C)C)cc2)oc1-c1ccc(C(=N)NC(C)C)cc1` [Compound 20, 2,5-bis[4-(N-isopropylamidino)phenyl]-3-methylfuran]: the IC50 was 1 to 2 µM in series [1], 50 to 100 µM in series [7], 3 µM in series [2] and 4.4 µM in series [3] (Giardia duodenalis).
Take `N=C(N)c1ccc(OCCCCCOc2ccc(C(=N)N)cc2)cc1` [Pentamidine, reference compound]: the response vs control in vivo at 22.1 µM in series [4] (setting [10]) is 3.66%. In series [4] (dosage 22.1 µM/kg/day intravenous), the Toxicity result is “+2”.
